{"source": "patent US20080269223A1", "about": "“Mouth Dissolvable and Meltable, and Water Dispersable Delivery Formulation” (priority 2004, published 2008)", "key": {"[1]": {"assay": "Dissolution time of mannitol forms in water", "type": "physicochemical", "details": "ratio 1:30 w/w with respect to water, 20° C.", "procedure": "The filler is mannitol, preferably a form of spray dried mannitol. […] Accordingly, α form of spray dried mannitol is most preferred in accordance to the present invention. The α-form of mannitol has mean particle size diameter of about 150 micron and Haussner number of about 1.16, having dissolution time in water with a ratio of 1:30 with respect to water in w/w, not more than 5 seconds at 20° C. […] When the dissolution time of the α-form of spray dried mannitol is compared with the standard and granulated mannitol, it gave following gradation:—"}, "[2]": {"details": "cited from earlier work"}, "human plasma protein": {"system": "human plasma protein", "details": "cited from earlier work"}}, "note": "Where two headings read alike, the source gives them in different places."}
{"compound": "OC[C@@H](O)[C@@H](O)[C@H](O)[C@H](O)CO", "note": "[standard mannitol]", "values": [{"measurement": "dissolution time in water", "setting": "[1]", "value": 35, "unit": "s"}]}
{"compound": "Nc1nnc(-c2cccc(Cl)c2Cl)c(N)n1", "note": "[Lamotrigine, 3,5-diamino-b-[2,3-dichlorophenyl]-1,2,4-triazine]", "values": [{"measurement": "average half life", "setting": "[2]; Lamotrigine alone", "value": "approximately 24 hours"}, {"measurement": "effect of food on bioavailability", "setting": "[2]; in vivo", "value": "not affected by food"}, {"measurement": "half life", "setting": "[2]; used concurrently with phenytoin", "value": "approximately 7.2 hours"}, {"measurement": "half life", "setting": "[2]; with Valproic Acid", "value": "approximately 59 hours"}, {"measurement": "displacement of other anti-epileptic drugs from protein binding sites", "setting": "human plasma protein; carbamazepine, phenytoin, phenobarbitol", "value": "does not displace"}, {"measurement": "bound to human plasma protein", "setting": "human plasma protein", "value": "approximately 55%"}]}
{"compound": "OC[C@@H](O)[C@@H](O)[C@H](O)[C@H](O)CO", "note": "[granulated mannitol]", "values": [{"measurement": "dissolution time in water", "setting": "[1]", "value": 100, "unit": "s"}]}
{"compound": "OCC(O)C(O)C(O)C(O)CO", "note": "(stereo not drawn) [Spray dried α-mannitol, 1,2,3,4,5,6-hexanehexol]", "values": [{"measurement": "dissolution time in water", "setting": "[1]", "value": 5, "unit": "s"}, {"measurement": "dissolution time in water", "setting": "[1]; listed as α-form of mannitol", "value": "not more than 5 seconds"}]}
